Laboratory results taken from US5834499A, “5-HT3 receptor agonist, novel thiazole derivative and intermediate thereof” (Yamanouchi Pharmaceutical Co., Ltd., priority 1994, dated 1998).

How the values were obtained:
[1] = biological target: T1, 5-HT3 receptor (Cavia porcellus, UniProt O70212); assay: contractile effects on the isolated colon from a guinea pig (5-HT3 receptor agonistic activity); design: species or system guinea pig (male Hartley); settings: for Emax: guinea pig, read-out: Max. response; for Relative potency: relative EC50 value, based on that of 5-HT as standard value (1)
T1 construct: Distal colons were excised from male Hartley guinea pigs; from tissue; host or cells: distal colon strips of male Hartley guinea pigs
T1 sequence (O70212 24-490 limits assumed): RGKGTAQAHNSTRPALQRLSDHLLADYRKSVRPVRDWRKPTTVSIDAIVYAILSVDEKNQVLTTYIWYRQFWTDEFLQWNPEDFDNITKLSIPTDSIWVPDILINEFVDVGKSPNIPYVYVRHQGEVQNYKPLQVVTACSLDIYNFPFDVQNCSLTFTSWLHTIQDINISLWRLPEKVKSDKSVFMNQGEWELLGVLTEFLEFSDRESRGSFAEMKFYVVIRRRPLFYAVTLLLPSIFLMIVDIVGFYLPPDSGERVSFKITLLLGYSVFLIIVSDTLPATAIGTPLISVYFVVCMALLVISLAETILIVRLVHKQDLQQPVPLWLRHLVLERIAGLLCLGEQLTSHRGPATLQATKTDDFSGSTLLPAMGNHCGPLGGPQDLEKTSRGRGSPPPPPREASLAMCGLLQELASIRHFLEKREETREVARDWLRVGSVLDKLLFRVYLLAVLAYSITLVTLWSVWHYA
From the text: Distal colons were excised from male Hartley guinea pigs (500 to 800 g) to prepare strips of about 20 mm.
Each strip was longitudinally suspended in an organ bath, and contractile response was isometrically measured.

[2] = system: 5-HT3 receptor; assay: Facilitation of defecation in rat; type: in vivo, rat (male Wistar); settings: 10 mg/kg s.c.; number of feces excreted for four hours after administration
Experimental: In the male Wistar rat (200-300 g), facilitating effects on defecation by stimulation of 5-HT3 receptor [Miyata et al., J. Pharmacol. Exp. Ther., 261, 297 (1992)] were studied. The compound (10 mg/kg) was subcutaneously administered to the rat and the number of feces excreted for four hours after the administration was counted.

Compound | Emax [1] [%] | Relative potency [1] | facilitating effect on defecation [2]
c1ccc2c(c1)Cc1sc([C@@H]3C[C@@H]4CCCN4C3)nc1-2 (relative stereo) [Ex. 66, (3R*,5S*)-3-(8H-indeno[1,2-d]thiazol-2-yl)-1-azabicyclo[3.3.0]octane hemifumarate] | 57 | – | –
NCCc1nc2c(s1)Cc1ccccc1-2.O=C(O)/C=C/C(=O)O [Ex. 9, 2-(2-aminoethyl)-8H-indeno[1,2-d]thiazole fumarate] | 75 | 1/2 | –
O=C(O)/C=C/C(=O)O.c1ccc(-c2csc(C3CCCNC3)n2)cc1 (centres unmarked) [Ex. 46, 4-Phenyl-2-(3-piperidyl)thiazole fumarate] | 52 | 1/2 | –
c1ccc2c(c1)Cc1sc(C3CCNC3)nc1-2 (centres unmarked) [Ex. 52, 2-(3-pyrrolidinyl)-8H-indeno[1,2-d]thiazole] | 77 | – | exhibited facilitating effect on defecation
c1csc(-c2csc(CC3CCCCN3)n2)c1 (centres unmarked) [Ex. 59, 2-[[4-(2-Thienyl)-2-thiazolyl]methyl]piperidine hemifumarate] | 45 | 1/3 | –
NC1(CCc2nc3c(s2)Cc2ccccc2-3)CCCCC1 [Ex. 70, 2-[2-(1-aminocyclohexyl)ethyl]-8H-indeno[1,2-d]thiazole] | 23 | – | –
c1ccc2c(c1)Cc1sc(CCN3CCCCC3)nc1-2 [Ex. 71, 2-(2-piperidinoethyl)-8H-indeno[1,2-d]thiazole] | 51 | – | –
